Where two headings read alike, the source gives them in different places.
Legend:
[1] = cited from earlier work
aPTT activity of heparin = experiment: Heparin neutralization by aPTT clotting assay; type: biochemical, human; conditions: heparin 1 mg
Protocol: For the aPTT clotting assay, 15 μl of heparin solution (20 μg/ml) was mixed with 15 μl of solution containing various concentrations of protamine (0-60 μg/ml) or LMWP species (0-100 μg/ml). To the mixture, 100 μl of actin cephaloplastin and 100 μl of plasma were added. After 3 min of incubation, 100 μl of 0.02 M calcium chloride (preheated to 37° C.) was added and the clotting time was immediately measured using a fibrometer (Fibrosystem, Becton Dickinson Company, Cockeysville, Md.).

[2] = system: anti-Xa activity of heparin; experiment: Heparin neutralization by anti-factor Xa chromogenic assay; type: biochemical, human; conditions: heparin 40 μg; half-points of ΔAbs in FIG. 5
Protocol: (§1) Heparin neutralization by protamine and LMWP was also measured in plasma by anti-factor Xa chromogenic assay and activated partial thromboplastin time (aPTT) clotting assay (Yang et al., 1986). In brief, for the anti-factor Xa assay, a series of plasma samples containing 0.4 mg of heparin, 15 IU of ATIII, and various amounts of protamine (0-0.8 mg) or LMWP (0-0.4 mg) were prepared. One hundred microliters of the plasma sample were then mixed with 800 μl of Tris-HCl buffer (pH 7.4), followed by the addition of 100 μl of Factor Xa (7.1 nkat/ml). After a 3 min incubation at 37° C., 200 μl of […] substrate (0.5 mg/ml) were added. The reaction mixture was incubated for 5 min at 37° C. and then quenched by the addition of 200 μl of 20% acetic acid. The absorbance in the solution was measured at 405 nm, and the degree of heparin neutralization is proportional to this measured absorbance.

[3] = Immunogenicity in mice, IgG antibody production by ELISA; type: in vivo; conditions: immunized with 50 μg in CFA plus boosters; ELISA on wells coated with the same species
Protocol: The immunogenicity of protamine and LMWP was examined in mice. The production of polyclonal antibodies was performed as described (Cooper and Paterson, 1991). Fifteen thin-skinned albino mice, ten for protamine and five for LMWP were included. Each mouse was immunized with 50 μg of either protamine or LMWP in the complete Freund's adjuvant (CFA). Four weeks later, animals were bled and first booster was given with 5 μg of protamine (or LMWP) in incomplete Freund's adjuvant (IFA). Second and third boosters were given at two-week intervals. Afterwards, blood was collected, allowed to clot, and centrifuged to collect serum. All sera were tested for IgG antibodies using a modified ELISA method (Singh et al., 1982). Protamine or LMWP was used to coat the wells of the microplate in order to capture their related antibodies. The detection antibody was goat-antimouse-IgG-alkaline phosphatase that was reacted with p-nitrophenylphosphate to produce the absorbance readings at 405 nm. The antigenicity of LMWP was examined by following the same ELISA method described above but by utilizing a LMWP-coated microplate for antibody detection in the protamine-immunized mice.

[4] = Binding constant to LMWH determined with the heparin sensor
Excerpt: (§2) With the assistance of the heparin sensor and the methodology described previously (Yun et al., 1993), the inventors were able to determine the binding constant of heparin and LMWH to ATIII, protamine, and LMWP.

[5] = Binding constant to heparin determined with the heparin sensor
Excerpt: as §2

[6] = cited from earlier work; remark: listed apart in the source
[7] = system: anti-Xa activity of CY216 (LMWH); experiment: Neutralization of LMWH (CY216) by anti-Xa chromogenic substrate assay; type: biochemical; conditions: dose of 30 μg
Protocol: as §1
Neutralization of the anticoagulant functions of both heparin and LMWH by protamine and LMWP is studied in human plasma using the aPTT clotting assay and the chromagenic anti-Xa and anti-IIa assays (Yang et al., 1986). The aPTT values of the test samples, are measured using a fibrometer (Fibrosystem; Becton-Dickinson, Cockeysville, Md.), and the anti-Xa and anti-IIa activities are measured using the chromagenic substrates S-2222 and S-2238, respectively. […]

[8] = Blood glucose control in streptozotocin-diabetic rats; type: in vivo; conditions: data from 6 rats
Protocol: Induction of diabetes in rats was carried out by the injection of streptozotocin at a dose of 45 mg/kg body weight. Diabetes was confirmed 24 h after injection by measuring the tail blood glucose with a Lifescan Glucometer (One Touch II).

Substance | units of heparin neutralized by each milligram ([1]; heparin derived from bovine lung tissue) | units of heparin neutralized by each milligram ([1]; heparin derived from porcine intestinal mucosa) [units] | amount required to completely neutralize the aPTT activity of heparin (aPTT activity of heparin) [mg] | dose required for 50% heparin neutralization [2] [nmol] | mice with positive reaction for antibodies [3] | Binding Constant to LMWH [4] [µM⁻¹] | Binding Constant to LMWH ([4]; listed as protamine) [µM⁻¹] | Binding Constant to Heparin [5] [µM⁻¹] | Binding Constant to Heparin ([5]; listed as protamine) [µM⁻¹] | pKa [6] | neutralization of the anti-Xa activity of CY216 [7] [%] | overall time span to preserve a low glucose level [8] [min] | time required to reach the minimum glucose level [8] [min]
Protamine | approximately 90 units | ~115 | ~1.7 | 7 | 4 out of 10 and four out of ten | 1.1 ± 0.3 | 1.1 | 89.0 ± 2.0 | 89 | about 10 | 60 | – | –
insulin | – | – | – | – | – | – | – | – | – | – | – | 360 ± 50 | 100 ± 20
